Source: patent publication EP0423419B1, “Inhibitive agent against activity of alpha-amylase” (MITSUI NORIN CO., LTD., priority 1989, dated 1991)
Read-outs that look alike come from different tables or passages of the source.

Columns and labels:
[1] = biological target: T1, α-amylase prepared from human saliva (Homo sapiens, UniProt P0DUB6); experiment: Inhibition of the activity of α-amylase (reducing sugar from soluble starch, Bernfeld method); type: biochemical
T1 construct: α-amylase prepared from human saliva; purchased Sigma Co; host or cells: human saliva
T1 sequence (P0DUB6 16-511): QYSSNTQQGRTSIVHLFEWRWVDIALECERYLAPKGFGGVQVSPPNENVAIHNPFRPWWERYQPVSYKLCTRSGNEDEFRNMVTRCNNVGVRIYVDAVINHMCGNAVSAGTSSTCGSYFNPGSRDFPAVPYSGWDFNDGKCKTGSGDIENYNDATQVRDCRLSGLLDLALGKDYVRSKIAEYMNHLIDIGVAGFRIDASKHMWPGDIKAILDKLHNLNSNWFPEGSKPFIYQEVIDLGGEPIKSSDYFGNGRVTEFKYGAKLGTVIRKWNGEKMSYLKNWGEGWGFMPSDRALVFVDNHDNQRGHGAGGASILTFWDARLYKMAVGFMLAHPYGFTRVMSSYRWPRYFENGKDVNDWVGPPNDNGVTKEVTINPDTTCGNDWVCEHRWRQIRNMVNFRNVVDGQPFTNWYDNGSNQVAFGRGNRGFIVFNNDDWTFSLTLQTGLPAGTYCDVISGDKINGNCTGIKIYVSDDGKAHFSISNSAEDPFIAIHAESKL
Method: The enzyme used here was a product of α-amylase prepared from human saliva and supplied by Sigma Co.
A 150 µl of the enzyme solution (0.44 U/ml in a buffer solution) was added to 1230 µl of the sample solution and the mixture was incubated at 37°C for 10 minutes. Thereafter, the sample solution was admixed with 120 µl of a solution of soluble starch as the substrate so as to have a final concentration of the substrate of 2.0 mg/ml to effect the reaction at 37°C. A 200 µl aliquot of the solution was taken in every 3 minutes from the solution while the reaction was proceeding and the reducing sugar produced therein was determined by the measurement of the absorbance at a wave-length of 540 nm according to the method of Bernfeld described in Meth. […] The value of the absorbance was converted by calculation into the amount of maltose present and from this the reaction velocity was calculated according to the conventional procedure.

[2] = Acute toxicity in mice (LD50); conditions: mouse, in vivo, ip; intraperitoneal administration, ICR mice, Van der Waerden method; read-out: LD₅₀
Method: An animal test was conducted by using ICR mice as the test animals to examine the acute toxicity of the inventive inhibitive agent against the activity of α-amylase. The values of LD₅₀ calculated according to the Van der Waerdrn method within the confidence limit were: 2412 mg/kg in the oral administration of the same crude mixture of catechin compounds as used in Example 2; 55.2 mg/kg in the intraperitoneal administration of a crude mixture of theaflavin compounds of the composition shown in Table 5 below; and 150 mg/kg in the intraperitoneal administration of epigallocatechin gallate.

[3] = human saliva α-amylase, 10 min preincubation at 37°C, soluble starch 2.0 mg/ml, read-out: Concentration for 50% inhibition

Row | Compound | IC50 [1, 3] | LD50 [2] | IC50 [1]
1 | Oc1cc(O)c2c(c1)O[C@H](c1cc(O)c(O)c(O)c1)[C@H](O)C2 [Epicagallcatechin, (-)epigallocatechin] | > 1000 µM | – | –
2 | O=C(O[C@@H]1Cc2c(O)cc(O)cc2O[C@@H]1c1ccc(O)c(O)c1)c1cc(O)c(O)c(O)c1 [Epicatechin gallate, (-)epicatechin gallate] | 130 µM | – | –
3 | Oc1cc(O)c2c(c1)O[C@H](c1ccc(O)c(O)c1)[C@H](O)C2 [Epicatechin, (-)epicatechin] | > 1000 µM | – | –
4 | O=C(O[C@@H]1Cc2c(O)cc(O)cc2O[C@@H]1c1cc(O)c(O)c(O)c1)c1cc(O)c(O)c(O)c1 [Epigallocatechin gallate, (-)epigallocatechin gallate] | 260 µM | 150 mg/kg | –
5 | O=c1c(O)cc([C@H]2Oc3cc(O)cc(O)c3C[C@H]2O)cc2c([C@H]3Oc4cc(O)cc(O)c4C[C@H]3O)cc(O)c(O)c12 [Free theaflavin, free theaflavin] | 18 µM | – | –
6 | O=C(O)c1cc(O)c(O)c(O)c1 [Gallic acid, reference compound] | – | – | > 1000 µM
7 | O=C(O[C@@H]1Cc2c(O)cc(O)cc2O[C@@H]1c1cc(O)c(=O)c2c(O)c(O)cc([C@H]3Oc4cc(O)cc(O)c4C[C@H]3O)c2c1)c1cc(O)c(O)c(O)c1 [Theaflavin monogallate A, theaflavin monogallate A] | 1 µM | – | –
8 | O=C(O[C@@H]1Cc2c(O)cc(O)cc2O[C@@H]1c1cc(O)c(O)c2c(=O)c(O)cc([C@H]3Oc4cc(O)cc(O)c4C[C@H]3O)cc12)c1cc(O)c(O)c(O)c1 [Theaflavin monogallate B, theaflavin monogallate B] | 1.7 µM | – | –
